Assay results published in patent EP4722201A1, “3-PHENYLISOXAZOLINE-5-CARBOXAMIDE COMPOUND, AND PREPARATION METHOD THEREFOR, HERBICIDAL COMPOSITION THEREOF AND USE THEREOF” (Jiangsu Flag Chemical Industry Co., Ltd, priority 2023, dated 2024).

What was measured:
Format in all cases: in vivo
Alopecurus myosuroides = assay: Indoor herbicide activity determination, Seed Treatment; pre-emergence (soil spray)
In short: (§1)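 Herbicide was applied to soil before weed emergence, 24 h after sowing, by tower spraying. Plants grew at constant temperature with illumination, and fresh weight compared with untreated pots gave % inhibition after 21 days.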

Alopecurus japonicus = assay: as above
In short: as §1

Leptochloa chinensis = assay: as above
In short: as §1

Lolium multiflorum = assay: as above
In short: as §1

Cyperus iria [1] = assay: Indoor herbicide activity determination, post-emergence (stem and leaf spray at 2-4 leaf stage); settings: 504 h, 60 g a.i./ha, determined 21 days later, read-out: Inhibition rate of fresh weight, Cyperus iria
Description: (§2) The testing method for herbicide activity of the compound of the present invention was as follows:
(§3) Post-emergence: an appropriate quantity of seeds of gramineous weeds (Echinochloa crusgalli, Eleusine indica, Digitaria sanguinalis, Alopecurus japonicus, Beckmannia syzigachne, Leptochloa chinensis, Polypogon fugax, Alopecurus aequalis, Lolium multiflorum, Poa annua, Aegilops tauschii, Avena fatua, Alopecurus myosuroides, Alopecurus japonicus and Alopecurus aequalis), broad-leaved weeds (Eclipta prostrata, Amaranthus retroflexus, Rorippa indica, Malachium aquaticum, Veronica polita, Conyza canadensis, Sesbania cannabina, Sagittariatrifolia and Schoenoplectiella juncoides), and Cyperus iria were sown in plastic pots having a diameter of 7 cm and holes at the bottom and filled with nutrient soil (sandy soil, pH 6.1, organic matter 1%) respectively, the seeds were covered with an appropriate amount of soil after being sown, then the soil was wetted with water from the bottom, the seeds were cultured in a constant-temperature illuminated culture room until a 2-4 leaf stage, and stems and leaves underwent spray treatment. After the treatment, the test materials were placed in a laboratory and cultured in the constant-temperature illuminated culture room after the liquid was naturally dry in the shade, and results were determined 21 days later. Inhibition rate of fresh weight % = (1−(fresh weight of treated plants)/(fresh weight of control plants)) × 100% [formula]

Digitaria sanguinalis [2] = assay: as above; settings: 504 h, 60 g a.i./ha, determined 21 days later, read-out: Inhibition rate of fresh weight, Digitaria sanguinalis
Description: as §2, §3

Eclipta prostrata [3] = assay: as above; settings: 504 h, 60 g a.i./ha, determined 21 days later, read-out: Inhibition rate of fresh weight, Eclipta prostrata
Description: as §2, §3

Cyperus iria [4] = assay: Indoor herbicide activity determination, Seed Treatment; pre-emergence (soil spray); settings: read-out: Herbicidal activities (inhibition rate) Cyperus iria; for inhibition at 60 g/ha: 60 g a.i./ha; for inhibition at 120 g/ha: 120 g a.i./ha
In short: as §1

Digitaria sanguinalis [5] = assay: as above; settings: read-out: Herbicidal activities (inhibition rate) Digitaria sanguinalis; for inhibition at 60 g/ha: 60 g a.i./ha; for inhibition at 120 g/ha: 120 g a.i./ha
In short: as §1

Aegilops tauschii = assay: as above; settings: read-out: Herbicidal activities (inhibition rate) Aegilops tauschii; for inhibition at 60 g/ha: 60 g a.i./ha; for inhibition at 120 g/ha: 120 g a.i./ha
In short: as §1

Eleusine indica = assay: as above
In short: as §1

Eclipta prostrata [6] = assay: as above; settings: read-out: Herbicidal activities (inhibition rate) Eclipta prostrata; for inhibition at 60 g/ha: 60 g a.i./ha; for inhibition at 120 g/ha: 120 g a.i./ha
In short: as §1

SMILES | Herbicidal activities, Alopecurus myosuroides (inhibition rate class) (Alopecurus myosuroides; Dosage 240 g a.i./ha) | Herbicidal activities, Alopecurus japonicus (inhibition rate class) (Alopecurus japonicus; Dosage 240 g a.i./ha) | Herbicidal activities, Leptochloa chinensis (inhibition rate class) (Leptochloa chinensis; Dosage 240 g a.i./ha) | Herbicidal activities, Lolium multiflorum (inhibition rate class) (Lolium multiflorum; Dosage 240 g a.i./ha) | inhibition at 60 g/ha (Cyperus iria [1]) | inhibition at 60 g/ha (Digitaria sanguinalis [2]) | inhibition at 60 g/ha (Eclipta prostrata [3]) | inhibition at 60 g/ha (Cyperus iria [4]) | inhibition at 60 g/ha (Digitaria sanguinalis [5]) | inhibition at 60 g/ha (Aegilops tauschii) | inhibition at 60 g/ha (Eclipta prostrata [6]) | inhibition at 120 g/ha (Cyperus iria [4]) | inhibition at 120 g/ha (Digitaria sanguinalis [5]) | inhibition at 120 g/ha (Aegilops tauschii) | Herbicidal activities, Eleusine indica (inhibition rate class) (Eleusine indica; Dosage 240 g a.i./ha) | inhibition at 120 g/ha (Eclipta prostrata [6]) | other results
COC(=O)[C@H]1C[C@@H](NC(=O)C2(CF)CC(c3cc(F)cc(F)c3)=NO2)C1 (relative stereo) [I-310] | A (A indicates that the inhibition rate was greater than or equal to 80% to 100%) | A (A indicates that the inhibition rate was greater than or equal to 80% to 100%) | A (A indicates that the inhibition rate was greater than or equal to 80% to 100%) | A (A indicates that the inhibition rate was greater than or equal to 80% to 100%) | 80 to 100% | 80 to 100% | 60 to 80% | – | – | – | – | – | – | – | – | – | –
COC(=O)[C@H]1C[C@@H](NC(=O)C2(C(F)(F)F)CC(c3cc(Cl)cc(C(F)(F)F)c3)=NO2)C1 (relative stereo) [I-247] | A (A indicates that the inhibition rate was greater than or equal to 80% to 100%) | A (A indicates that the inhibition rate was greater than or equal to 80% to 100%) | A (A indicates that the inhibition rate was greater than or equal to 80% to 100%) | A (A indicates that the inhibition rate was greater than or equal to 80% to 100%) | 80 to 100% | 80 to 100% | 60 to 80% | – | – | – | – | – | – | – | – | – | –
C=C[C@]1(C(=O)N[C@H]2C=C[C@@H](C(=O)OCC)C2)CC(c2cc(F)cc(C(F)(F)F)c2)=NO1 [I-429] | – | – | – | – | – | – | – | 60 to 80% | 60 to 80% | 60 to 80% | 60 to 80% | – | – | – | – | – | Herbicidal activities, Alopecurus myosuroides (inhibition rate class) (Alopecurus myosuroides; Dosage 120 g a.i./ha): A (A indicates that the inhibition rate was greater than or equal to 80% to 100%); Herbicidal activities, Alopecurus japonicus (inhibition rate class) (Alopecurus japonicus; Dosage 120 g a.i./ha): A (A indicates that the inhibition rate was greater than or equal to 80% to 100%); Herbicidal activities, Leptochloa chinensis (inhibition rate class) (Leptochloa chinensis; Dosage 120 g a.i./ha): A (A indicates that the inhibition rate was greater than or equal to 80% to 100%); Herbicidal activities, Eleusine indica (inhibition rate class) (Eleusine indica; Dosage 120 g a.i./ha): A (A indicates that the inhibition rate was greater than or equal to 80% to 100%); Herbicidal activities, Lolium multiflorum (inhibition rate class) (Lolium multiflorum; Dosage 120 g a.i./ha): A (A indicates that the inhibition rate was greater than or equal to 80% to 100%)
C=CC1(C(=O)N[C@H]2CO[C@@H](C(=O)OC)C2)CC(c2cc(F)cc(OC(F)F)c2)=NO1 (mixture of isomers) [I-370] | A (A indicates that the inhibition rate was greater than or equal to 80% to 100%) | A (A indicates that the inhibition rate was greater than or equal to 80% to 100%) | A (A indicates that the inhibition rate was greater than or equal to 80% to 100%) | A (A indicates that the inhibition rate was greater than or equal to 80% to 100%) | – | – | – | – | – | – | – | 80 to 100% | 60 to 80% | 80 to 100% | A (A indicates that the inhibition rate was greater than or equal to 80% to 100%) | 60 to 80% | –
C=C[C@]1(C(=O)N[C@H]2C=C[C@@H](C(=O)OC(C)C)C2)CC(c2cc(F)cc(OC(F)(F)F)c2)=NO1 [I-463] | – | – | – | – | – | – | – | 60 to 80% | 60 to 80% | 60 to 80% | 60 to 80% | – | – | – | – | – | Herbicidal activity (inhibition rate class), Alopecurus myosuroides (Alopecurus myosuroides; Dosage 120 g a.i./ha): A (A indicates that the inhibition rate was greater than or equal to 80% to 100%); Herbicidal activity (inhibition rate class), Alopecurus japonicus (Alopecurus japonicus; Dosage 120 g a.i./ha): A (A indicates that the inhibition rate was greater than or equal to 80% to 100%); Herbicidal activity (inhibition rate class), Leptochloa chinensis (Leptochloa chinensis; Dosage 120 g a.i./ha): A (A indicates that the inhibition rate was greater than or equal to 80% to 100%); Herbicidal activity (inhibition rate class), Eleusine indica (Eleusine indica; Dosage 120 g a.i./ha): A (A indicates that the inhibition rate was greater than or equal to 80% to 100%); Herbicidal activity (inhibition rate class), Lolium multiflorum (Lolium multiflorum; Dosage 120 g a.i./ha): A (A indicates that the inhibition rate was greater than or equal to 80% to 100%)
C=CC1(C(=O)N[C@H]2CO[C@@H](C(=O)OC)C2)CC(c2cc(Cl)cc(OC(F)F)c2)=NO1 (mixture of isomers) [I-373] | A (A indicates that the inhibition rate was greater than or equal to 80% to 100%) | A (A indicates that the inhibition rate was greater than or equal to 80% to 100%) | A (A indicates that the inhibition rate was greater than or equal to 80% to 100%) | A (A indicates that the inhibition rate was greater than or equal to 80% to 100%) | – | – | – | – | – | – | – | 60 to 80% | 80 to 100% | 60 to 80% | B (B indicates that the inhibition rate was greater than or equal to 60% to less than 80%) | 80 to 100% | –
